Laboratory results from US20250235434A1, “RIFABUTIN ANALOGS FOR THE TREATMENT OF DISEASE” (BIOVERSYS AG, priority 2022, published 2025).
In brackets after ≈: the same amount, converted by molar mass. Read-outs that look alike come from different tables or passages of the source.

Assays:
Type in all cases: cell-based
[1] = test system: S. aureus (UAMS-1625 strain); experiment: MIC by broth microdilution against S. aureus; conditions: Staphylococcus aureus, 20 h, read-out: MIC S. aureus
[2] = test system: M. abscessus (ATCC 19977); experiment: MIC by broth microdilution against M. abscessus; conditions: Mycobacteroides abscessus
[3] = test system: A. baumannii (HUMC1 strain); experiment: MIC by broth microdilution against A. baumannii; conditions: Acinetobacter baumannii, RPMI medium supplemented with 10% FCS, 35° C. for 20 hours, visual reading
[4] = test system: M. avium (ATCC 25291); experiment: MIC against M. avium (resazurin assay); conditions: Mycobacterium avium, ATCC25291, 168 h, Middlebrook 7H9 + ADC, 90% growth inhibition, 7 days
[5] = test system: M. smegmatis (ATCC 700084); experiment: MIC against M. smegmatis (resazurin assay); conditions: Mycolicibacterium smegmatis, ATCC700084, Middlebrook 7H9 + ADC, 90% growth inhibition, 20 h
[6] = test system: M. kansasii (ATCC 12478); experiment: MIC against M. kansasii (resazurin assay); conditions: Mycobacterium kansasii, ATCC12478, 168 h, Middlebrook 7H9 + ADC, 90% growth inhibition, 7 days
[7] = test system: M. tuberculosis H37Rv (ATCC 27294); experiment: microbe, parasite or virus in culture; conditions: Mycobacterium tuberculosis, 120 h
[8] = test system: M. xenopi (ATCC 19250); experiment: MIC against M. xenopi (resazurin assay); conditions: Mycobacterium xenopi, ATCC19250, 168 h, Middlebrook 7H9 + ADC, 90% growth inhibition, 7 days
[9] = ATCC19977, 20 h, ATCC 19977, Middlebrook 7H9 broth with ADC supplement, visual reading, read-out: MIC M. abscessus
[10] = ATCC19977, tested M. abscessus strains, read-out: MIC value on M. abscessus

Row | SMILES | MIC [1] [µg/mL] | MIC [2, 9] [µg/mL] | MIC [3] [µg/mL] | MIC [4] [µg/mL] | MIC [5] [µg/mL] | MIC [6] [µg/mL] | MIC [7] [µg/mL] | MIC [8] [µg/mL] | MIC [2, 10] [µg/mL]
1 | CO[C@H]1/C=C/O[C@@]2(C)Oc3c(C)c(O)c4c(c3C2=O)C2=NC3(CCN(CC(C)C)CC3)NC2=C(NC(=O)/C(C)=C\C=C\[C@H](C)[C@H](O)[C@@H](C)[C@@H](O)[C@@H](C)[C@H](OC(=O)CN2CC(Nc3ccc(F)cc3)C2)[C@@H]1C)C4=O [Compound 31] | 0.06 (≈ 0.0593 µM) | 4 (≈ 3.96 µM) | 0.008 (≈ 0.00791 µM) |  |  |  |  |  | 
2 | CO[C@H]1/C=C/O[C@@]2(C)Oc3c(C)c(O)c4c(c3C2=O)C2=NC3(CCN(CC(C)C)CC3)NC2=C(NC(=O)/C(C)=C\C=C\[C@H](C)[C@H](O)[C@@H](C)[C@@H](O)[C@@H](C)[C@H](OC(=O)C[n+]2ccc(C)cc2)[C@@H]1C)C4=O [Compound 38] | 0.25 | 2 | 0.004 |  |  |  |  |  | 
3 | CO[C@H]1/C=C/O[C@@]2(C)Oc3c(C)c(O)c4c(c3C2=O)C2=NC3(CCN(CC(C)C)CC3)NC2=C(NC(=O)/C(C)=C\C=C\[C@H](C)[C@H](O)[C@@H](C)[C@@H](O)[C@@H](C)[C@H](OC(=O)C[n+]2ccc(N(C)C)cc2)[C@@H]1C)C4=O [Compound 35] | 0.06 | 0.5 | ≤ 0.002 | 0.8 | 0.03 | 0.003 | 0.0025 | 0.04 | 
4 | CO[C@H]1/C=C/O[C@@]2(C)Oc3c(C)c(O)c4c(c3C2=O)C2=NC3(CCN(CC(C)C)CC3)NC2=C(NC(=O)/C(C)=C\C=C\[C@H](C)[C@H](O)[C@@H](C)[C@@H](O)[C@@H](C)[C@H](OC(=O)CN2CCC(Cc3ccccc3)CC2)[C@@H]1C)C4=O [Compound 21] | 4 (≈ 3.92 µM) | 2 (≈ 1.96 µM) | 0.125 (≈ 0.123 µM) |  |  |  |  |  | 
5 | CO[C@H]1/C=C/O[C@@]2(C)Oc3c(C)c(O)c4c(c3C2=O)C2=NC3(CCN(CC(C)C)CC3)NC2=C(NC(=O)/C(C)=C\C=C\[C@H](C)[C@H](O)[C@@H](C)[C@@H](O)[C@@H](C)[C@H](OC(=O)CN2CCC(NS(=O)(=O)c3ccccc3)CC2)[C@@H]1C)C4=O [Compound 29] | 0.5 (≈ 0.461 µM) | 0.25 (≈ 0.23 µM) | 0.03 (≈ 0.0276 µM) | 0.6 | 0.09 | 0.01 | 0.003 (≈ 0.00276 µM) | 0.01 | 
6 | CO[C@H]1/C=C/O[C@@]2(C)Oc3c(C)c(O)c4c(c3C2=O)C2=NC3(CCN(CC(C)C)CC3)NC2=C(NC(=O)/C(C)=C\C=C\[C@H](C)[C@H](O)[C@@H](C)[C@@H](O)[C@@H](C)[C@H](OC(=O)CNCC2CCN(C)CC2)[C@@H]1C)C4=O [Compound 1] | 0.06 (≈ 0.0617 µM) | 2 (≈ 2.06 µM) | ≤ 0.002 |  |  |  |  |  | 
7 | CO[C@H]1/C=C/O[C@@]2(C)Oc3c(C)c(O)c4c(c3C2=O)C2=NC3(CCN(CC(C)C)CC3)NC2=C(NC(=O)/C(C)=C\C=C\[C@H](C)[C@H](O)[C@@H](C)[C@@H](O)[C@@H](C)[C@H](OC(=O)CNC2CCN(C)CC2)[C@@H]1C)C4=O [Compound 2] | 0.06 (≈ 0.0626 µM) | 2 (≈ 2.09 µM) | ≤ 0.002 | 1.2 | 0.03 | 0.02 | 0.02 (≈ 0.0209 µM) | 0.08 | 
8 | CO[C@H]1/C=C/O[C@@]2(C)Oc3c(C)c(O)c4c(c3C2=O)C2=NC3(CCN(CC(C)C)CC3)NC2=C(NC(=O)/C(C)=C\C=C\[C@H](C)[C@H](O)[C@@H](C)[C@@H](O)[C@@H](C)[C@H](OC(C)=O)[C@@H]1C)C4=O [Rifabutin] | 0.016 (≈ 0.0189 µM) | 8 (≈ 9.44 µM) | ≤ 0.002 | 0.15 | 0.14 | 0.001 | 0.0003 (≈ 0.000354 µM) | 0.01 | 8 (≈ 9.44 µM)
9 | CO[C@H]1/C=C/O[C@@]2(C)Oc3c(C)c(O)c4c(c3C2=O)C2=NC3(CCN(CC(C)C)CC3)NC2=C(NC(=O)/C(C)=C\C=C\[C@H](C)[C@H](O)[C@@H](C)[C@@H](O)[C@@H](C)[C@H](OC(=O)CN2CCC(N3CCn5ccnc5C3)CC2)[C@@H]1C)C4=O [Compound 30] | 0.06 (≈ 0.0571 µM) | 1 (≈ 0.951 µM) | ≤ 0.002 |  |  |  |  |  | 
10 | CO[C@H]1/C=C/O[C@@]2(C)Oc3c(C)c(O)c4c(c3C2=O)C2=NC3(CCN(CC(C)C)CC3)NC2=C(NC(=O)/C(C)=C\C=C\[C@H](C)[C@H](O)[C@@H](C)[C@@H](O)[C@@H](C)[C@H](OC(=O)CNCCN(C)C)[C@@H]1C)C4=O [Compound 13] | 0.03 (≈ 0.0321 µM) | 2 (≈ 2.14 µM) | ≤ 0.002 |  |  |  |  |  | 
11 | CO[C@H]1/C=C/O[C@@]2(C)Oc3c(C)c(O)c4c(c3C2=O)C2=NC3(CCN(CC(C)C)CC3)NC2=C(NC(=O)/C(C)=C\C=C\[C@H](C)[C@H](O)[C@@H](C)[C@@H](O)[C@@H](C)[C@H](OC(=O)CN2CC(n3cccc3)C2)[C@@H]1C)C4=O [Compound 32] | 0.03 (≈ 0.031 µM) | 2 (≈ 2.07 µM) | 0.008 (≈ 0.00827 µM) |  |  |  |  |  | 
12 | CC[N+](CC)(CC)CC(=O)O[C@H]1[C@H](C)[C@H](O)[C@H](C)[C@@H](O)[C@@H](C)/C=C/C=C(/C)C(=O)NC2=C3NC4(CCN(CC(C)C)CC4)N=C3c3c(c(O)c(C)c4c3C(=O)[C@@](C)(O/C=C/[C@H](OC)[C@H]1C)O4)C2=O [Compound 36] | 0.125 | 2 | ≤ 0.002 |  |  |  |  |  | 
13 | CO[C@H]1/C=C/O[C@@]2(C)Oc3c(C)c(O)c4c(c3C2=O)C2=NC3(CCN(CC(C)C)CC3)NC2=C(NC(=O)/C(C)=C\C=C\[C@H](C)[C@H](O)[C@@H](C)[C@@H](O)[C@@H](C)[C@H](OC(=O)CN2CCC(NC(=O)OC(C)(C)C)CC2)[C@@H]1C)C4=O [Compound 27] | 0.125 (≈ 0.12 µM) | 0.25 (≈ 0.239 µM) | 0.008 (≈ 0.00765 µM) |  |  |  |  |  | 
14 | CO[C@H]1/C=C/O[C@@]2(C)Oc3c(C)c(O)c4c(c3C2=O)C2=NC3(CCN(CC(C)C)CC3)NC2=C(NC(=O)/C(C)=C\C=C\[C@H](C)[C@H](O)[C@@H](C)[C@@H](O)[C@@H](C)[C@H](OC(=O)CNCC(C)C)[C@@H]1C)C4=O [Compound 17] | 0.06 (≈ 0.0653 µM) | 4 (≈ 4.36 µM) | 0.008 (≈ 0.00871 µM) |  |  |  |  |  | 
15 | CO[C@H]1/C=C/O[C@@]2(C)Oc3c(C)c(O)c4c(c3C2=O)C2=NC3(CCN(CC(C)C)CC3)NC2=C(NC(=O)/C(C)=C\C=C\[C@H](C)[C@H](O)[C@@H](C)[C@@H](O)[C@@H](C)[C@H](OC(=O)CN2CCN(c3ccccc3)CC2)[C@@H]1C)C4=O [Compound 7] | 0.5 (≈ 0.496 µM) | 0.5 (≈ 0.496 µM) | 0.06 (≈ 0.0596 µM) |  |  |  |  |  | 
16 | CO[C@H]1/C=C/O[C@@]2(C)Oc3c(C)c(O)c4c(O)c(c(/C=N/N5CCN(C)CC5)c(O)c4c3C2=O)NC(=O)/C(C)=C\C=C\[C@H](C)[C@H](O)[C@@H](C)[C@@H](O)[C@@H](C)[C@H](OC(C)=O)[C@@H]1C [Rifampicin, reference compound] |  |  |  |  |  |  |  |  | > 32
17 | CO[C@H]1/C=C/O[C@@]2(C)Oc3c(C)c(O)c4c(c3C2=O)C2=NC3(CCN(CC(C)C)CC3)NC2=C(NC(=O)/C(C)=C\C=C\[C@H](C)[C@H](O)[C@@H](C)[C@@H](O)[C@@H](C)[C@H](OC(=O)CNCCN2CCCCC2)[C@@H]1C)C4=O [Compound 8] | 0.06 (≈ 0.0617 µM) | 1 (≈ 1.03 µM) | ≤ 0.002 |  |  |  |  |  | 
18 | COc1cc(CC2CCN(CC(=O)O[C@H]3[C@H](C)[C@H](O)[C@H](C)[C@@H](O)[C@@H](C)/C=C/C=C(/C)C(=O)NC4=C5NC6(CCN(CC(C)C)CC6)N=C5c5c(c(O)c(C)c6c5C(=O)[C@@](C)(O/C=C/[C@H](OC)[C@H]3C)O6)C4=O)CC2)cc(C(F)(F)F)c1 [Compound 22] | 4 (≈ 3.58 µM) | 4 (≈ 3.58 µM) | 0.25 (≈ 0.224 µM) |  |  |  |  |  | 
19 | CO[C@H]1/C=C/O[C@@]2(C)Oc3c(C)c(O)c4c(c3C2=O)C2=NC3(CCN(CC(C)C)CC3)NC2=C(NC(=O)/C(C)=C\C=C\[C@H](C)[C@H](O)[C@@H](C)[C@@H](O)[C@@H](C)[C@H](OC(=O)CNCCN2CCN(C)CC2)[C@@H]1C)C4=O [Compound 9] | 0.06 (≈ 0.0607 µM) | 2 (≈ 2.02 µM) | ≤ 0.002 |  |  |  |  |  | 
20 | CO[C@H]1/C=C/O[C@@]2(C)Oc3c(C)c(O)c4c(c3C2=O)C2=NC3(CCN(CC(C)C)CC3)NC2=C(NC(=O)/C(C)=C\C=C\[C@H](C)[C@H](O)[C@@H](C)[C@@H](O)[C@@H](C)[C@H](OC(=O)CNCCCN2CCOCC2)[C@@H]1C)C4=O [Compound 11] | 0.06 (≈ 0.0607 µM) | 2 (≈ 2.02 µM) | 0.008 (≈ 0.00809 µM) |  |  |  |  |  | 
21 | CO[C@H]1/C=C/O[C@@]2(C)Oc3c(C)c(O)c4c(c3C2=O)C2=NC3(CCN(CC(C)C)CC3)NC2=C(NC(=O)/C(C)=C\C=C\[C@H](C)[C@H](O)[C@@H](C)[C@@H](O)[C@@H](C)[C@H](OC(=O)C[n+]2ccccc2)[C@@H]1C)C4=O [Compound 37] | 0.25 | 2 | 0.004 |  |  |  |  |  | 
22 | CO[C@H]1/C=C/O[C@@]2(C)Oc3c(C)c(O)c4c(c3C2=O)C2=NC3(CCN(CC(C)C)CC3)NC2=C(NC(=O)/C(C)=C\C=C\[C@H](C)[C@H](O)[C@@H](C)[C@@H](O)[C@@H](C)[C@H](OC(=O)CN2CCCCC2)[C@@H]1C)C4=O [Compound 4] | 0.06 (≈ 0.0645 µM) | 4 (≈ 4.3 µM) | 0.004 (≈ 0.0043 µM) |  |  |  |  |  | 
23 | CO[C@H]1/C=C/O[C@@]2(C)Oc3c(C)c(O)c4c(c3C2=O)C2=NC3(CCN(CC(C)C)CC3)NC2=C(NC(=O)/C(C)=C\C=C\[C@H](C)[C@H](O)[C@@H](C)[C@@H](O)[C@@H](C)[C@H](OC(=O)CN2CCC(C(O)c3nccn3C)CC2)[C@@H]1C)C4=O (stereo partly shown) [Compound 23] | 0.125 (≈ 0.12 µM) | 1 (≈ 0.961 µM) | 0.004 (≈ 0.00385 µM) |  |  |  |  |  | 
